The record followed here is the supplement of paper PMC10307832.

What all share (assay): relative viability (nuclei count vs DMSO), 5 days (fraction); higher = more cells survive
Compound in assay [1]: CCCS(=O)(=O)Nc1ccc(F)c(C(=O)c2c[nH]c3ncc(-c4ccc(Cl)cc4)cc23)c1F [Vemurafenib] + CC(=O)c1c(C)c2cnc(Nc3ccc(N4CCNCC4)cn3)nc2n(C2CCCC2)c1=O [Palbociclib] (partner 0.5 µM)
Put shortly: (§1)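 Five library-drug doses in √10 steps were combined with a fixed anchor-drug dose, or a single drug was given alone, by pin tool to lung cancer cell lines in 1536-well plates the day after seeding. Nuclei were stained and counted after 5 days. Relative viability is the nuclei count in treated wells over that in vehicle wells, taken as the median of duplicate plates.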

Compound in the assay “Vemurafenib + Decitabine”: CCCS(=O)(=O)Nc1ccc(F)c(C(=O)c2c[nH]c3ncc(-c4ccc(Cl)cc4)cc23)c1F [Vemurafenib] + Nc1ncn([C@H]2C[C@H](O)[C@@H](CO)O2)c(=O)n1 [Decitabine] (partner 2 µM)
A digest of the protocol: as §1

Compound in the assay “Alpelisib + Phenformin”: Cc1nc(NC(=O)N2CCC[C@H]2C(N)=O)sc1-c1ccnc(C(C)(C)C(F)(F)F)c1 [Alpelisib] + N=C(N)NC(=N)NCCc1ccccc1 [Phenformin] (partner 250 µM)
A digest of the protocol: as §1

Compound in the assay “Alpelisib + Decitabine”: Cc1nc(NC(=O)N2CCC[C@H]2C(N)=O)sc1-c1ccnc(C(C)(C)C(F)(F)F)c1 [Alpelisib] + Nc1ncn([C@H]2C[C@H](O)[C@@H](CO)O2)c(=O)n1 [Decitabine] (partner 2 µM)
Put shortly: as §1

For the cell line UMC-11, the relative viability stood at 0.328 in assay [1] (first compound 0.03162 µM); 0.313 in assay [1] (first compound 0.1 µM); 0.315 in assay [1] (first compound 1 µM); 0.568 in the assay with Vemurafenib + Decitabine (first compound 0.03162 µM); 0.595 in the assay with Vemurafenib + Decitabine (first compound 0.1 µM); 0.545 with Vemurafenib + Decitabine (first compound 1 µM). Moreover, the relative viability with Alpelisib + Phenformin (first compound 0.04 µM) was found to be 0.302; with Alpelisib + Phenformin (first compound 0.1265 µM), 0.325; with Alpelisib + Phenformin (first compound 0.4 µM), 0.326; with Alpelisib + Phenformin (first compound 1.265 µM), 0.31; with Alpelisib + Phenformin (first compound 4 µM), 0.262; with Alpelisib + Decitabine (first compound 0.04 µM), 0.513. In addition, the relative viability turned out to be 0.636 with Alpelisib + Decitabine (first compound 0.1265 µM), 0.693 with Alpelisib + Decitabine (first compound 0.4 µM), 0.535 with Alpelisib + Decitabine (first compound 1.265 µM) and 0.745 in the assay with Alpelisib + Decitabine (first compound 4 µM).
